The values below come from US20240051946A1, “TARGETED PROTEIN DEGRADATION OF PARP14 FOR USE IN THERAPY” (Ribon Therapeutics, Inc., priority 2022, published 2024).

Counter-ions that a name gives are not always drawn. A value given as a limit tells only on which side of the number the result lay.

The target in the experiment is T1, PARP14 (Homo sapiens, UniProt Q460N5).
T1 construct: engineered to contain a HiBiT tag on both alleles of the PARP14 gene; endogenous in cells; host or cells: Jurkat cells stably expressing LgBiT (Promega), with CRISPR/Cas9 knock-in of HiBiT at the PARP14 locus
Briefly: HiBiT assay for the degradation of PARP14 (HiBiT tagged PARP14 in LgBiT expressing Jurkat cells). It is filed as cell-based. To be noted: Assay B, 37° C. for 2 or 24 hours, luminescence, read-out: DC50. On the procedure:
Jurkat cells stably transfected with LgBiT (Promega) were engineered to contain a HiBiT tag on both alleles of the PARP14 gene (Genbank Accession Number: NM_017554) via CRISPR/Cas9 editing. The HiBiT tag is an 11 amino acid tag created by Promega that associates with LgBiT protein to form the NanoLuc® tag on the C-terminus of PARP14. Clones were isolated and confirmed for the HiBiT tag via Sanger sequencing.
Degradation of PARP14 protein was assessed by measuring the luminescence of the HiBiT tag associating with the LgBiT protein as a proxy for the PARP14 protein. Jurkat cells were diluted to 250,000 cells per mL and then added to assay plate (Corning 3574) using a Multidrop (Thermo Fisher) to add 20 μL per well of the 384 well plate, resulting in 5,000 cells per well. 20 nL of a dose response curve diluted in DMSO of each test compound was added to the cell plate using a Mosquito (TTP Labtech) and the plate was incubated at 37° C. for 2 or 24 hours. Assay plate was brought to room temperature then 5 μL per well of Live Cell Substrate (Promega) was added to the plate. Luminescence was measured on an Envision (Perkin Elmer).
The average DMSO was calculated from 32 wells containing 0.1% DMSO only in columns 12 and 24 of the assay plate. The % of DMSO values were calculated as described below: […]
The % of DMSO values were plotted as a function of compound concentration and the following 4-parameter fit was applied to derive the DC50 values:
where top, bottom, and Hill Coefficient are allowed to float. Y is the % of DMSO and X is the compound concentration.
DC50 data for the Example compounds is provided below in Table 2 (“+” is <0.03 μM; “++” is ≥0.03 μM).
In general terms: The HiBiT peptide binds its large partner to form an active luciferase.

T1 sequence (Q460N5 whole entry): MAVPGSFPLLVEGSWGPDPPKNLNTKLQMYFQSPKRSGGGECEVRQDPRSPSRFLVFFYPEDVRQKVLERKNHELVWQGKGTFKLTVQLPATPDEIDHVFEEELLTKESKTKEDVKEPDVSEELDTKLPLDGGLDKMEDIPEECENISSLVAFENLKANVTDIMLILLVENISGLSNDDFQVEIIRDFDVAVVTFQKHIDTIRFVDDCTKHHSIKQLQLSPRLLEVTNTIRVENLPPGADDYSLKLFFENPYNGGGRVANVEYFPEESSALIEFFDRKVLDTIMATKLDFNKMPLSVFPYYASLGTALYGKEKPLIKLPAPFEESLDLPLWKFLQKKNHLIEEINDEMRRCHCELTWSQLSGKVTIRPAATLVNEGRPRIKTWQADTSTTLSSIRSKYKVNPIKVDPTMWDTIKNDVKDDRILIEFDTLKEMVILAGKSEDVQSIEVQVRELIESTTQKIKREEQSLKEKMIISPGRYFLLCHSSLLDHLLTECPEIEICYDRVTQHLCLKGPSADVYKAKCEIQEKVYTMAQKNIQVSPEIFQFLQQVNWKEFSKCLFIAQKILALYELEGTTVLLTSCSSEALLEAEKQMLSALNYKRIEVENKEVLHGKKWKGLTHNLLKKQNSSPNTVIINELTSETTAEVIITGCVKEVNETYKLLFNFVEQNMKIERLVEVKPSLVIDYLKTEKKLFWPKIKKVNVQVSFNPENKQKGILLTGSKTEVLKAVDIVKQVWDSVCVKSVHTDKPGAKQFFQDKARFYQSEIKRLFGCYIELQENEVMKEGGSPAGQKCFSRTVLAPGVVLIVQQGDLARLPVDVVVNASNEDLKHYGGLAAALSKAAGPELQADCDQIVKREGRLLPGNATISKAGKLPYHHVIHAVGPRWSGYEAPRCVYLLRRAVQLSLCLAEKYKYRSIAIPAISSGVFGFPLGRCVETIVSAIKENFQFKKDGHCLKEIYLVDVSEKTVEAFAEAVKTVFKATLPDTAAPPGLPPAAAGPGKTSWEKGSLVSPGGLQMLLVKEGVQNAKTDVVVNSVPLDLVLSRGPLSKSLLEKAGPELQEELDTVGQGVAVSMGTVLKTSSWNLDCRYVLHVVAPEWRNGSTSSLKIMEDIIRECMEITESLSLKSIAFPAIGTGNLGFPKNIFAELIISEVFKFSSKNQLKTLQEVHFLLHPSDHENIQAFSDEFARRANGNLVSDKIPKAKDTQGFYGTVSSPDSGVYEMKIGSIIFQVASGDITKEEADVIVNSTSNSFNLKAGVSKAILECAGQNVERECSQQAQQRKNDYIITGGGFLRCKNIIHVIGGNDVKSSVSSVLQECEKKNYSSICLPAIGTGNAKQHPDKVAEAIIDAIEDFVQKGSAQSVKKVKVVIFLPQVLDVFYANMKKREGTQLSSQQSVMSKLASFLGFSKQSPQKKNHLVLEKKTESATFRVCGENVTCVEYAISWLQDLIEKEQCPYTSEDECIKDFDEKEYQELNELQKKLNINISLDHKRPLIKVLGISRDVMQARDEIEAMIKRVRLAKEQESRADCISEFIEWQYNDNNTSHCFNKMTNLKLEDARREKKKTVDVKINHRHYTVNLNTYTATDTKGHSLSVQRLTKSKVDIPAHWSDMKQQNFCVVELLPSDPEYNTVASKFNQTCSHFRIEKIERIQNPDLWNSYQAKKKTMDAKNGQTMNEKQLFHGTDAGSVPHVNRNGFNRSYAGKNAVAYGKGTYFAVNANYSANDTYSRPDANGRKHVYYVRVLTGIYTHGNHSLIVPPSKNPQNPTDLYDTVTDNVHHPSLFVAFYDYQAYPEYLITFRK

Take `O=C1CCC(N2Cc3cc(N4CCC(CN5CCC(SCc6nc7cc(OCC8CC8)cc(F)c7c(=O)[nH]6)CC5)CC4)ccc3C2=O)C(=O)N1` (stereo not shown) [Example 50, 3-(5-(4-((4-(((7-(cyclopropylmethoxy)-5-fluoro-4-oxo-3,4-dihydroquinazolin-2-yl)methyl)thio)piperidin-1-yl)methyl)piperidin-1-yl)-1-oxoisoindolin-2-yl)piperidine-2,6-dione]: the DC50 – broadly, the concentration at which degradation of the target reaches its halfway point – is below 30 nM.
As for `O=C1CCC(Nc2ccc(N3CCN(CCN4CCC(SCc5nc6cc(OCC7CCOCC7)cc(F)c6c(=O)[nH]5)CC4)CC3)cc2)C(=O)N1` (stereo not shown) [Example 43, 3-((4-(4-(2-(4-(((5-fluoro-4-oxo-7-((tetrahydro-2H-pyran-4-yl)methoxy)-3,4-dihydroquinazolin-2-yl)methyl)thio)piperidin-1-yl)ethyl)piperazin-1-yl)phenyl)amino)piperidine-2,6-dione], the figure is below 30 nM; as for `O=C1CCC(Nc2ccc(N3CCC(N4CCC(SCc5nc6cc(OCC7CC7)cc(F)c6c(=O)[nH]5)CC4)C3)c(F)c2)C(=O)N1` (stereo not shown) [Example 59, 3-((4-(3-(4-(((7-(cyclopropylmethoxy)-5-fluoro-4-oxo-3,4-dihydroquinazolin-2-yl)methyl)thio)piperidin-1-yl)pyrrolidin-1-yl)-3-fluorophenyl)amino)piperidine-2,6-dione], below 30 nM; as for `O=C1CCC(Nc2ccc(N3CCC(N4CCC(SCc5nc6cc(OCC7CCOCC7)cc(F)c6c(=O)[nH]5)CC4)CC3)c(F)c2)C(=O)N1` (stereo not shown) [Example 52, 3-((3-fluoro-4-(4-(((5-fluoro-4-oxo-7-((tetrahydro-2H-pyran-4-yl)methoxy)-3,4-dihydroquinazolin-2-yl)methyl)thio)-[1,4′-bipiperidin]-1′-yl)phenyl)amino)piperidine-2,6-dione], below 30 nM.
Consider `O=C1CCC(Nc2ccc(N3CCN(CCN4CCC(SCc5nc6cc(OCC7CC7)cc(F)c6c(=O)[nH]5)CC4)CC3)c(F)c2)C(=O)N1` (stereo not shown) [Example 47, 3-((4-(4-(2-(4-(((7-(cyclopropylmethoxy)-5-fluoro-4-oxo-3,4-dihydroquinazolin-2-yl)methyl)thio)piperidin-1-yl)ethyl)piperazin-1-yl)-3-fluorophenyl)amino)piperidine-2,6-dione], for which the DC50 is below 30 nM.
For `O=C1CCC(Nc2ccc(N3CCC(N4CCC(SCc5nc6cc(OCC7CC7)cc(F)c6c(=O)[nH]5)CC4)CC3)c(C(F)(F)F)c2)C(=O)N1` (stereo not shown) [Example 57, 3-((4-(4-(((7-(cyclopropylmethoxy)-5-fluoro-4-oxo-3,4-dihydroquinazolin-2-yl)methyl)thio)-[1,4′-bipiperidin]-1′-yl)-3-(trifluoromethyl)phenyl)amino)piperidine-2,6-dione], the DC50 was below 30 nM.
The same measure for `O=C1CCC(Nc2ccc(N3CCC(C4CCN(CCc5nc6cc(OCC7CC7)cc(F)c6c(=O)[nH]5)CC4)CC3)c(F)c2)C(=O)N1` (stereo not shown) [Example 64, 3-((4-(1′-(2-(7-(cyclopropylmethoxy)-5-fluoro-4-oxo-3,4-dihydroquinazolin-2-yl)ethyl)-[4,4′-bipiperidin]-1-yl)-3-fluorophenyl)amino)piperidine-2,6-dione]: below 30 nM; for `O=C1CCC(Nc2ccc(N3CCC(CN4CCC(SCc5nc6cc(OCC7CC7)cc(F)c6c(=O)[nH]5)CC4)CC3)c(F)c2)C(=O)N1` (stereo not shown) [Example 56, 3-((4-(4-((4-(((7-(cyclopropylmethoxy)-5-fluoro-4-oxo-3,4-dihydroquinazolin-2-yl)methyl)thio)piperidin-1-yl)methyl)piperidin-1-yl)-3-fluorophenyl)amino)piperidine-2,6-dione formate]: below 30 nM; for `O=C1CCC(Nc2ccc(N3CCN(CCN4CCC(SCc5nc6cc(OCC7CCOCC7)cc(F)c6c(=O)[nH]5)CC4)CC3)c(F)c2)C(=O)N1` (stereo not shown) [Example 46, 3-((3-fluoro-4-(4-(2-(4-(((5-fluoro-4-oxo-7-((tetrahydro-2H-pyran-4-yl)methoxy)-3,4-dihydroquinazolin-2-yl)methyl)thio)piperidin-1-yl)ethyl)piperazin-1-yl)phenyl)amino)piperidine-2,6-dione]: below 30 nM.
As for `O=C1CCC(N2C(=O)c3cccc4c(N5CCN(CCN6CCC(SCc7nc8cc(OCC9CC9)cc(F)c8c(=O)[nH]7)CC6)CC5)ccc2c34)C(=O)N1` (stereo not shown) [Example 49, 3-(6-(4-(2-(4-(((7-(cyclopropylmethoxy)-5-fluoro-4-oxo-3,4-dihydroquinazolin-2-yl)methyl)thio)piperidin-1-yl)ethyl)piperazin-1-yl)-2-oxobenzo[cd]indol-1(2H)-yl)piperidine-2,6-dione], the figure is below 30 nM; as for `O=C1CCC(Nc2ccc(N3CC(N4CCC(SCc5nc6cc(OCC7CC7)cc(F)c6c(=O)[nH]5)CC4)C3)c(F)c2)C(=O)N1` (stereo not shown) [Example 66, 3-((4-(3-(4-(((7-(cyclopropylmethoxy)-5-fluoro-4-oxo-3,4-dihydroquinazolin-2-yl)methyl)thio)piperidin-1-yl)azetidin-1-yl)-3-fluorophenyl)amino)piperidine-2,6-dione], below 30 nM.
As for `O=C1CCC(Nc2ccc(N3CCC(N4CCC(SCc5nc6cc(C#CC7CC7)cc(F)c6c(=O)[nH]5)CC4)CC3)c(F)c2)C(=O)N1` (stereo not shown) [Example 67, 3-((4-(4-(((7-(cyclopropylethynyl)-5-fluoro-4-oxo-3,4-dihydroquinazolin-2-yl)methyl)thio)-[1,4′-bipiperidin]-1′-yl)-3-fluorophenyl)amino)piperidine-2,6-dione formate], the figure is below 30 nM.
Turning to `O=C1CCC(Nc2ccc(N3CCC(N4CC(N5CCC(SCc6nc7cc(OCC8CC8)cc(F)c7c(=O)[nH]6)CC5)C4)CC3)c(F)c2)C(=O)N1` (stereo not shown) [Example 48, 3-((4-(4-(3-(4-(((7-(cyclopropylmethoxy)-5-fluoro-4-oxo-3,4-dihydroquinazolin-2-yl)methyl)thio)piperidin-1-yl)azetidin-1-yl)piperidin-1-yl)-3-fluorophenyl)amino)piperidine-2,6-dione], the DC50 was below 30 nM.
The same measure for `O=C1CCN(c2ccc(N3CCC(N4CCC(SCc5nc6cc(OCC7CC7)cc(F)c6c(=O)[nH]5)CC4)CC3)c(F)c2)C(=O)N1` [Example 60, 1-(4-(4-(((7-(cyclopropylmethoxy)-5-fluoro-4-oxo-3,4-dihydroquinazolin-2-yl)methyl)thio)-[1,4′-bipiperidin]-1′-yl)-3-fluorophenyl)dihydropyrimidine-2,4(1H,3H)-dione]: below 30 nM; for `O=C1CCC(Nc2cc(F)c(N3CCC(N4CCC(SCc5nc6cc(OCC7CC7)cc(F)c6c(=O)[nH]5)CC4)CC3)cc2F)C(=O)N1` (stereo not shown) [Example 58, 3-((4-(4-(((7-(cyclopropylmethoxy)-5-fluoro-4-oxo-3,4-dihydroquinazolin-2-yl)methyl)thio)-[1,4′-bipiperidin]-1′-yl)-2,5-difluorophenyl)amino)piperidine-2,6-dione]: below 30 nM; for `O=C1CCC(Nc2ccc(N3CCN(CCO[C@H]4CC[C@H](SCc5nc6cc(OCC7CC7)cc(F)c6c(=O)[nH]5)CC4)CC3)c(F)c2)C(=O)N1` (stereo partly shown) [Example 55, 3-((4-(4-(2-(((1r,4r)-4-(((7-(cyclopropylmethoxy)-5-fluoro-4-oxo-3,4-dihydroquinazolin-2-yl)methyl)thio)cyclohexyl)oxy)ethyl)piperazin-1-yl)-3-fluorophenyl)amino)piperidine-2,6-dione]: below 30 nM.
In the case of `O=C1CCC(Nc2ccc(N3CCN(CCN4CCC(OCc5nc6cc(OCC7CC7)cc(F)c6c(=O)[nH]5)CC4)CC3)c(F)c2)C(=O)N1` (stereo not shown) [Example 45, 3-((4-(4-(2-(4-((7-(cyclopropylmethoxy)-5-fluoro-4-oxo-3,4-dihydroquinazolin-2-yl)methoxy)piperidin-1-yl)ethyl)piperazin-1-yl)-3-fluorophenyl)amino)piperidine-2,6-dione], the DC50 was below 30 nM.
Regarding `O=C1CCC(Nc2ccc(N3CCN(CCN4CCC(OCc5nc6cc(OCC7CCOCC7)cc(F)c6c(=O)[nH]5)CC4)CC3)c(F)c2)C(=O)N1` (stereo not shown) [Example 44, 3-((3-fluoro-4-(4-(2-(4-((5-fluoro-4-oxo-7-((tetrahydro-2H-pyran-4-yl)methoxy)-3,4-dihydroquinazolin-2-yl)methoxy)piperidin-1-yl)ethyl)piperazin-1-yl)phenyl)amino)piperidine-2,6-dione], the DC50 was below 30 nM.
On to `O=C1CCN(c2cncc3c(N4CCC(N5CCC(SCc6nc7cc(OCC8CC8)cc(F)c7c(=O)[nH]6)CC5)CC4)cccc23)C(=O)N1` [Example 62, 1-(8-(4-(((7-(cyclopropylmethoxy)-5-fluoro-4-oxo-3,4-dihydroquinazolin-2-yl)methyl)thio)-[1,4′-bipiperidin]-1′-yl)isoquinolin-4-yl)dihydropyrimidine-2,4(1H,3H)-dione], for which the DC50 is below 30 nM.
